# Measured values from patent US7687246B2, “Process for producing carotenoids” (DSM IP Assets B. V., priority 2002, dated 2010).
# Tests used:
# Type in all cases: cell-based
# [1] = test system: Phaffia rhodozyma ATCC96594; assay: Effect of the squalene synthase inhibitor on the cell growth of Phaffia rhodozyma (Example 1)
# Procedure: Phaffia rhodozyma ATCC96594 (redeposited under the accession No. ATCC 74438 on Apr. 8, 1998 pursuant to the Budapest Treaty) was inoculated into YPD medium (DIFCO, Detroit, U.S.A., 10 mL in tube) and cultivated by shaking at 20° C. for 2 days. 0.5 mL of the culture was inoculated into fresh YPD medium (10 mL in tube) containing 30 g/L of glucose and 0, 0.2, 0.5, 1.0, 2.0, 5.0, 10.0, and 20.0, μg/mL, respectively, of [3-(3-allyl-biphenyl-4-yl-oxy)-propyl]-isopropyl-amine, and cultivated by shaking at 20° C. for 5 days. An aliquot of the culture was withdrawn occasionally during the cultivation, and optical density at 660 nm was measured by using UV-1200 photometer (Shimadzu Corp., Kyoto, Japan) for analysis of the cell growth.
# [2] = test system: Phaffia rhodozyma ATCC96594; assay: Cell growth of Phaffia rhodozyma during astaxanthin production culture (Example 2)
# Procedure: (§1) An aliquot of the culture was withdrawn occasionally during the cultivation, and optical density at 660 nm was measured by using UV-1200 photometer (Shimadzu Corp., Kyoto, Japan) for analysis of the cell growth. Phaffia rhodozyma ATCC96594 (redeposited under the accession No. ATCC 74438 on Apr. 8, 1998 pursuant to the Budapest Treaty) was inoculated into YPD medium as in Example 1 and cultivated by shaking at 20° C. for 2 days. 2.5 ml of the culture were inoculated into fresh YPD medium (50 mL in flask) containing 22 g/L of glucose and 0, 0.5, 1.0, 2.0, and 5.0, μg/mL, respectively, of [3-(3-allyl-biphenyl-4-yloxy)-propyl]-isopropyl-amine, and cultivated by shaking at 20° C. for 7 days. On Day 2 of the cultivation, 50 g/L of glucose was added to the culture. Addition of the inhibitor in the middle of the cultivation was also tested. An aliquot of the culture was withdrawn at Day 4 and Day 7 of the cultivation, and optical density at 660 nm (by using the same method described in Example 1) and astaxanthin content in the culture were measured.
# [3] = test system: Phaffia rhodozyma ATCC96594; assay: Effect of the squalene synthase inhibitor on astaxanthin production by Phaffia rhodozyma (Example 2); conditions: for Astaxanthin content (relative values): relative to Day 7 without inhibitor = 100
# Procedure: as §1, with “Phaffia” for “An aliquot of the culture was withdrawn occasionally during the cultivation, and optical density at 660 nm was measured by using UV-1200 photometer (Shimadzu Corp., Kyoto, Japan) for analysis of the cell growth. Phaffia”, “measured. For analysis of the content of astaxanthin, the withdrawn broth was mixed with a solvent mixture (ethyl alcohol, hexane and ethyl acetate) and carotenoids were extracted from the cells of Phaffia rhodozyma by vigorous shaking with glass beads. After extraction, disrupted cells and glass beads were removed by centrifugation and the resultant supernatant was analyzed by HPLC for the astaxanthin content. The HPLC conditions used were as follows: [table] A reference sample of astaxanthin was obtained from Hoffmann La-Roche (Basel, Switzerland).” for “measured.”
# [4] = 5.0 μg/mL inhibitor added at Day 2 of the cultivation, Day 4
# [5] = 5.0 μg/mL inhibitor added at Day 2 of the cultivation, Day 7
# [6] = 5.0 μg/mL inhibitor from start, Day 4
# [7] = 5.0 μg/mL inhibitor from start, Day 7
smiles,measurement,setting,value
C=CCc1cc(-c2ccccc2)ccc1OCCCNC(C)C [[3-(3-allyl-biphenyl-4-yloxy)-propyl]-isopropyl-amine],Cell growth (OD at 660 nm),"[1]; 0.2 μg/mL inhibitor, Day 1",4.5
same,Cell growth (OD at 660 nm),"[1]; 0.2 μg/mL inhibitor, Day 2",16.7
same,Cell growth (OD at 660 nm),"[1]; 0.2 μg/mL inhibitor, Day 3",20.1
same,Cell growth (OD at 660 nm),"[1]; 0.2 μg/mL inhibitor, Day 5",19.3
same,Cell growth (OD at 660 nm),"[1]; 0.5 μg/mL inhibitor, Day 1",4.4
same,Cell growth (OD at 660 nm),"[1]; 0.5 μg/mL inhibitor, Day 2",15.6
same,Cell growth (OD at 660 nm),"[1]; 0.5 μg/mL inhibitor, Day 3",20.4
same,Cell growth (OD at 660 nm),"[1]; 0.5 μg/mL inhibitor, Day 5",19.4
same,Cell growth (OD at 660 nm),"[1]; 1.0 μg/mL inhibitor, Day 1",4.0
same,Cell growth (OD at 660 nm),"[1]; 1.0 μg/mL inhibitor, Day 2",15.0
same,Cell growth (OD at 660 nm),"[1]; 1.0 μg/mL inhibitor, Day 3",20.0
same,Cell growth (OD at 660 nm),"[1]; 1.0 μg/mL inhibitor, Day 5",19.5
same,Cell growth (OD at 660 nm),"[1]; 2.0 μg/mL inhibitor, Day 1",3.6
same,Cell growth (OD at 660 nm),"[1]; 2.0 μg/mL inhibitor, Day 2",15.0
same,Cell growth (OD at 660 nm),"[1]; 2.0 μg/mL inhibitor, Day 3",19.5
same,Cell growth (OD at 660 nm),"[1]; 2.0 μg/mL inhibitor, Day 5",19.0
same,Cell growth (OD at 660 nm),"[1]; 5.0 μg/mL inhibitor, Day 1",2.9
same,Cell growth (OD at 660 nm),"[1]; 5.0 μg/mL inhibitor, Day 2",12.3
same,Cell growth (OD at 660 nm),"[1]; 5.0 μg/mL inhibitor, Day 3",18.8
same,Cell growth (OD at 660 nm),"[1]; 5.0 μg/mL inhibitor, Day 5",18.0
same,Cell growth (OD at 660 nm),"[1]; 10.0 μg/mL inhibitor, Day 1",2.0
same,Cell growth (OD at 660 nm),"[1]; 10.0 μg/mL inhibitor, Day 2",5.6
same,Cell growth (OD at 660 nm),"[1]; 10.0 μg/mL inhibitor, Day 3",14.7
same,Cell growth (OD at 660 nm),"[1]; 10.0 μg/mL inhibitor, Day 5",16.9
same,Cell growth (OD at 660 nm),"[1]; 20.0 μg/mL inhibitor, Day 1",1.2
same,Cell growth (OD at 660 nm),"[1]; 20.0 μg/mL inhibitor, Day 2",1.7
same,Cell growth (OD at 660 nm),"[1]; 20.0 μg/mL inhibitor, Day 3",2.7
same,Cell growth (OD at 660 nm),"[1]; 20.0 μg/mL inhibitor, Day 5",7.0
same,inhibition at 5 µg/mL,"[1]; Phaffia rhodozyma, ATCC96594, 48 h, 5.0 μg/mL inhibitor, Day 2",~23%
same,cell growth (effect in words),[1]; concentration not higher than 2.0 μg/mL,not affected
same,Cell growth (OD at 660 nm),"[2]; 0.5 μg/mL inhibitor, Day 4",39.6
same,Cell growth (OD at 660 nm),"[2]; 0.5 μg/mL inhibitor, Day 7",39.8
same,Cell growth (OD at 660 nm),"[2]; 1.0 μg/mL inhibitor, Day 4",40.3
same,Cell growth (OD at 660 nm),"[2]; 1.0 μg/mL inhibitor, Day 7",39.8
same,Cell growth (OD at 660 nm),"[2]; 2.0 μg/mL inhibitor, Day 4",38.2
same,Cell growth (OD at 660 nm),"[2]; 2.0 μg/mL inhibitor, Day 7",39.3
same,Cell growth (OD at 660 nm),[2]; [4],37.4
same,Cell growth (OD at 660 nm),[2]; [5],37.9
same,Cell growth (OD at 660 nm),[2]; [6],40.2
same,Cell growth (OD at 660 nm),[2]; [7],39.5
same,Astaxanthin content (relative values),"[3]; 0.5 μg/mL inhibitor, Day 4",75
same,Astaxanthin content (relative values),"[3]; 0.5 μg/mL inhibitor, Day 7",114
same,Astaxanthin content (relative values),"[3]; 1.0 μg/mL inhibitor, Day 4",77
same,Astaxanthin content (relative values),"[3]; 1.0 μg/mL inhibitor, Day 7",118
same,Astaxanthin content (relative values),"[3]; 2.0 μg/mL inhibitor, Day 4",75
same,Astaxanthin content (relative values),"[3]; 2.0 μg/mL inhibitor, Day 7",125
same,Astaxanthin content (relative values),[3]; [4],84
same,Astaxanthin content (relative values),[3]; [5],131
same,Astaxanthin content (relative values),[3]; [6],67
same,Astaxanthin content (relative values),[3]; [7],129
same,Astaxanthin production (effect in words),"[3]; all conditions tested (0.5-5.0 μg/mL, from start or added at Day 2)",enhanced
